Usually AC50 stands for the concentration at which the activity in the assay is half-maximal.

The target in one test is T1, human PAH with the R408W mutation (Homo sapiens, UniProt P00439, R408W).
T1 construct: expressed in transfected cells
T1 sequence (P00439 1-452 R408W): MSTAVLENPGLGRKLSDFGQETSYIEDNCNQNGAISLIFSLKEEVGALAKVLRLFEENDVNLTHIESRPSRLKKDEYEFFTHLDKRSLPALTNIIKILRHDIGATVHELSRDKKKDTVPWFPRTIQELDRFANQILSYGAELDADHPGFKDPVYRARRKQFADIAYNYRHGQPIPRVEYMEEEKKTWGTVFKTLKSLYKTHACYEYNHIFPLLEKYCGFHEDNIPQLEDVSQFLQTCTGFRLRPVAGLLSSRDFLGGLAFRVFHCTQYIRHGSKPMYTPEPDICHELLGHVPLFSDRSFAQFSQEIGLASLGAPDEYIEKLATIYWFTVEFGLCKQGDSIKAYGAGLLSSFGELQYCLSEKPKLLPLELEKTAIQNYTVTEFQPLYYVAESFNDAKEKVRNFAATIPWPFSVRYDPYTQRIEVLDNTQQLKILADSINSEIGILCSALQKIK
The experiment in a line: Cell Based Phenylalanine Flux Assay. Details: scale not given here. The settings on record: A375 R408W cells, 24 hrs with compound, then 20 μM sepiapterin and 800 μM 13C9,15N-Phenylalanine for 4 hours; 13C-Tyrosine by LC-MS; average where tested multiple times.
On to `CC1CN(C(=O)c2oc(C(C)(C)O)nc2C(F)(F)F)C(c2cc3ccccc3cn2)c2nc[nH]c21` [(4R,7R) diastereomer of (2-(2-hydroxypropan-2-yl)-4-(trifluo], for which the AC50 entry is reported as “E, E,”.
Same read-out and setting: under `CC1CN(C(=O)c2oc(C(C)(C)O)nc2C(F)(F)F)C(c2cc3ccccc3cn2)c2nc[nH]c21` [(4R, 7S) diastereomer of (2-(2-hydroxypropan-2-yl)-4-(triflu] stands “E, E,”; under `CC1CN(C(=O)c2nnc(C(C)(C)O)o2)C(c2cc3ccccc3cn2)c2nc[nH]c21` [(4S, 7R) diastereomer of 2-{5-[4-(isoquinolin-3-yl)-7-methyl], “E, E”.
The same measure, in the same setting: under `Cc1nnc(C(=O)N2CC(C)c3[nH]cnc3C2c2cc3ccccc3cn2)o1` [(4S, 7R) diastereomer of 3-[7-methyl-5-(5-methyl-1,3,4-oxadi] stands “E, E”.
In the case of `CC1CN(C(=O)c2ocnc2C(F)(F)F)C(c2cc3ccccc3cn2)c2nc[nH]c21` [(4S, 7R) diastereomer of 3-[7-methyl-5-[4-(trifluoromethyl)-], the AC50 entry is listed as “E, E”.
Still for that read-out and setting: under `CC1CN(C(=O)c2nnc(N3CCN(C)CC3)o2)C(c2cc3ccccc3cn2)c2nc[nH]c21` [(4S, 7R) diastereomer of 3-[7-methyl-5-[5-(4-methylpiperazin] stands “E, E”.
On the same count and under the same terms, as for `COCCNc1nnc(C(=O)N2CC(C)c3[nH]cnc3C2c2cc3ccccc3cn2)o1` [(4S, 7R) diastereomer of 5-[4-(isoquinolin-3-yl)-7-methyl-1H], the entry is “E, E”; as for `CC1CN(C(=O)c2oc(C(C)(C)O)nc2C(F)(F)F)C(c2cc3ccccc3cn2)c2nc[nH]c21` [(4S, 7R) diastereomer of (2-(2-hydroxypropan-2-yl)-4-(triflu], “E, E”.
As for `CC1CN(C(=O)c2oc(-c3ccccn3)nc2C(F)(F)F)C(c2cc3ccccc3cn2)c2nc[nH]c21` [(4S, 7R) diastereomer of (4-(isoquinolin-3-yl)-7-methyl-6,7-], the AC50 result is recorded as “E, E”.
The same measure, in the same setting: as for `CC1CN(C(=O)c2nnc(C(C)(C)O)o2)C(c2cc3ccccc3cn2)c2nc[nH]c21` [(4S, 7S) diastereomer of 2-{5-[4-(isoquinolin-3-yl)-7-methyl], the entry is “E, E”; as for `Cc1ncoc1C(=O)N1CC(C)c2[nH]cnc2C1c1cc2ccccc2cn1` [(4S, 7S) diastereomer of 3-[7-methyl-5-(4-methyl-1,3-oxazole], “E, E”.

Staying with this test, now noted: A375 R408W cells, 24 hrs with compound, then 20 μM sepiapterin and 800 μM 13C9,15N-Phenylalanine for 4 hours; 13C-Tyrosine by LC-MS; average where tested multiple times; read-out: AC50.
On to `CC1CN(C(=O)c2nnc(N3CC(F)C3)o2)C(c2cc3ccccc3cn2)c2nc[nH]c21` [(4S, 7S) diastereomer of 3-[5-[5-(3-fluoroazetidin-1-yl)-1,3], for which the AC50 was > 5000 nM.
The same measure, in the same setting: under `COCc1ccc2c(C(=O)N3CC(C)c4[nH]cnc4C3c3cc4ccccc4cn3)cnn2c1` [(4S, 7S) diastereomer of 3-[5-[6-(methoxymethyl)pyrazolo[1,5] stands 1000 to 5000 nM.

Staying with this test, now noted: A375 cells expressing human R408W PAH; 24 hrs compound incubation; 13C-Tyrosine by LC-MS; average where tested multiple times; read-out: AC50.
As for `O=C(c1cn[nH]c1Cl)N1CCc2[nH]cnc2C1c1ccc2ccccc2n1` (stereo in doubt) [Example 124, (R)-(5-chloro-1H-pyrazol-4-yl)(4-(quinolin-2-yl)-6,7-dihydro-1H-imidazo[4,5-c]pyridin-5(4H)-yl)methanone], the AC50 lay in the range of 500 to 1000 nM.
On to `O=C(c1cnn(CC(F)(F)F)c1C(F)F)N1CCc2[nH]cnc2C1c1ccc2ccccc2n1` (stereo in doubt) [Example 125, (R)-(5-(difluoromethyl)-1-(2,2,2-trifluoroethyl)-1H-pyrazol-4-yl)(4-(quinolin-2-yl)-6,7-dihydro-1H-imidazo[4,5-c]pyridin-5(4H)-yl)methanone], for which the AC50 fell in the range of 1000 to 5000 nM.
For `O=C(c1cnn(CC(F)(F)F)c1C(F)F)N1CCc2[nH]cnc2C1c1ccc2ccccc2n1` (stereo in doubt) [Example 126, (S)-(5-(difluoromethyl)-1-(2,2,2-trifluoroethyl)-1H-pyrazol-4-yl)(4-(quinolin-2-yl)-6,7-dihydro-1H-imidazo[4,5-c]pyridin-5(4H)-yl)methanone], the AC50 was > 5000 nM.
In the case of `CC(C)(C#N)c1nc(C(F)F)c(C(=O)N2CCc3[nH]cnc3C2c2ccc3ccccc3n2)o1` (stereo in doubt) [Example 127, (S)-2-(4-(difluoromethyl)-5-(4-(quinolin-2-yl)-4,5,6,7-tetrahydro-1H-imidazo[4,5-c]pyridine-5-carbonyl)oxazol-2-yl)-2-methylpropanenitrile], the AC50 is 1000 to 5000 nM.
In the case of `CC(C)(C#N)c1nc(C(F)F)c(C(=O)N2CCc3[nH]cnc3C2c2ccc3ccccc3n2)o1` (stereo in doubt) [Example 128, (R)-2-(4-(difluoromethyl)-5-(4-(quinolin-2-yl)-4,5,6,7-tetrahydro-1H-imidazo[4,5-c]pyridine-5-carbonyl)oxazol-2-yl)-2-methylpropanenitrile], the AC50 is < 500 nM.
Still for that read-out and setting: under `O=C(c1oc(C2(O)CC2)nc1C(F)F)N1CCc2[nH]cnc2C1c1ccc2ccccc2n1` (stereo in doubt) [Example 129, (S)-(4-(difluoromethyl)-2-(1-hydroxycyclopropyl)oxazol-5-yl)(4-(quinolin-2-yl)-6,7-dihydro-1H-imidazo[4,5-c]pyridin-5(4H)-yl)methanone] stands 1000 to 5000 nM; under `O=C(c1oc(C2(O)CC2)nc1C(F)F)N1CCc2[nH]cnc2C1c1ccc2ccccc2n1` (stereo in doubt) [Example 130, (R)-(4-(difluoromethyl)-2-(1-hydroxycyclopropyl)oxazol-5-yl)(4-(quinolin-2-yl)-6,7-dihydro-1H-imidazo[4,5-c]pyridin-5(4H)-yl)methanone], < 500 nM.
On to `CC(C)(C)c1ncc(C(=O)N2CCc3[nH]cnc3C2c2ccc3ccccc3n2)o1` (stereo in doubt) [Example 258, (R)-(2-(tert-butyl)oxazol-5-yl)(4-(quinolin-2-yl)-6,7-dihydro-1H-imidazo[4,5-c]pyridin-5(4H)-yl)methanone], for which the AC50 was < 500 nM.
The same measure, in the same setting: under `O=C(c1cn[nH]c1C(F)F)N1CCc2[nH]cnc2C1c1ccc2ccccc2n1` (stereo in doubt) [Example 259, (R)-(5-(difluoromethyl)-1H-pyrazol-4-yl)(4-(quinolin-2-yl)-6,7-dihydro-1H-imidazo[4,5-c]pyridin-5(4H)-yl)methanone] stands < 500 nM; under `O=C(c1ccnn1-c1ccccn1)N1CCc2[nH]cnc2C1c1ccc2ccccc2n1` (stereo in doubt) [Example 261, (R)-(1-(pyridin-2-yl)-1H-pyrazol-5-yl)(4-(quinolin-2-yl)-6,7-dihydro-1H-imidazo[4,5-c]pyridin-5(4H)-yl)methanone], < 500 nM.
Turning to `Cn1nc(Cl)cc1C(=O)N1CCc2[nH]cnc2C1c1ccc2ccccc2n1` (stereo in doubt) [Example 263, (R)-(3-chloro-1-methyl-1H-pyrazol-5-yl)(4-(quinolin-2-yl)-6,7-dihydro-1H-imidazo[4,5-c]pyridin-5(4H)-yl)methanone], the AC50 is < 500 nM.
In the case of `Cn1nc(Cl)nc1C(=O)N1CCc2[nH]cnc2C1c1ccc2ccccc2n1` (stereo in doubt) [Example 265, (R)-(3-chloro-1-methyl-1H-1,2,4-triazol-5-yl)(4-(quinolin-2-yl)-6,7-dihydro-1H-imidazo[4,5-c]pyridin-5(4H)-yl)methanone], the AC50 is 500 to 1000 nM.
The same measure, in the same setting: as for `Nc1cc(C(=O)N2CCc3[nH]cnc3C2c2ccc3ccccc3n2)n(C(F)F)n1` (stereo in doubt) [Example 267, (R)-(3-amino-1-(difluoromethyl)-1H-pyrazol-5-yl)(4-(quinolin-2-yl)-6,7-dihydro-1H-imidazo[4,5-c]pyridin-5(4H)-yl)methanone], the figure is 500 to 1000 nM; as for `CCn1cnnc1C(=O)N1CCc2[nH]cnc2C1c1ccc2ccccc2n1` (stereo in doubt) [Example 270, (R)-(4-ethyl-4H-1,2,4-triazol-3-yl)(4-(quinolin-2-yl)-6,7-dihydro-1H-imidazo[4,5-c]pyridin-5(4H)-yl)methanone], 500 to 1000 nM; as for `O=C(CCc1nccs1)N1CCc2[nH]cnc2C1c1ccc2ccccc2n1` (stereo in doubt) [Example 271, (R)-1-(4-(quinolin-2-yl)-6,7-dihydro-1H-imidazo[4,5-c]pyridin-5(4H)-yl)-3-(thiazol-2-yl)propan-1-one], 500 to 1000 nM.
Still for that read-out and setting: under `O=C(CCc1nccs1)N1CCc2[nH]cnc2C1c1ccc2ccccc2n1` (stereo in doubt) [Example 272, (S)-1-(4-(quinolin-2-yl)-6,7-dihydro-1H-imidazo[4,5-c]pyridin-5(4H)-yl)-3-(thiazol-2-yl)propan-1-one] stands > 5000 nM; under `O=C(c1cnc(-c2ccc(F)cn2)s1)N1CCc2[nH]cnc2C1c1cc2ccccc2cn1` (stereo in doubt) [Example 312, (R)-(2-(5-fluoropyridin-2-yl)thiazol-5-y1)(4-(isoquinolin-3-yl)-6,7-dihydro-1H-imidazo[4,5-c]pyridin-5(4H)-yl)methanone], < 500 nM.
The same measure, in the same setting: under `O=C(c1nnc(C2CC2)o1)N1CCc2[nH]cnc2C1c1cc2ccccc2cn1` (stereo in doubt) [Example 327, (S)-(5-cyclopropyl-1,3,4-oxadiazol-2-yl)(4-(isoquinolin-3-y1)-6,7-dihydro-1H-imidazo[4,5-c]pyridin-5(4H)-yl)methanone] stands > 5000 nM.

The record behind these values is patent US20250262201A1, “COMPOUNDS AND METHODS USEFUL FOR STABILIZING PHENYLALANINE HYDROXYLASE MUTATIONS” (Agios Pharmaceuticals, Inc., priority 2022, published 2025).
